{
  "source": "paper PMC8546167",
  "about": "“Osh6 Revisited: Control of PS Transport by the Concerted Actions of PI4P and Sac1 Phosphatase” (Frontiers in Molecular Biosciences, 2021)",
  "molecular_target": "T1, Osh6 (Saccharomyces cerevisiae, UniProt Q02201)",
  "T1 construct": "recombinant in E. coli BL21 Star; N-terminal His6-GB1 tag cleaved by TEV",
  "T1 sequence (Q02201 1-448)": "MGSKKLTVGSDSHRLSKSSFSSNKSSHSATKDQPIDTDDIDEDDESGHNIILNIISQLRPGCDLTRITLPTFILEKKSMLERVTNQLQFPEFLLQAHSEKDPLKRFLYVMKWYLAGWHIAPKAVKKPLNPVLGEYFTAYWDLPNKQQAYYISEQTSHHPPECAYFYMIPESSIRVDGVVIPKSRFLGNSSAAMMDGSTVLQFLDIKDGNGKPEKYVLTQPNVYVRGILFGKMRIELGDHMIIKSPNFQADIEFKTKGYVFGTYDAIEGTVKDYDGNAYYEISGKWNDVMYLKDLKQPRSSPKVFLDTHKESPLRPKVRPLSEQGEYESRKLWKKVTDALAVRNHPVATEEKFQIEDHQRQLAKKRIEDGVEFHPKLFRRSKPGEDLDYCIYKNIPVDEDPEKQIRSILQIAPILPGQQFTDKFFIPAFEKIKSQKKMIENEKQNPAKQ",
  "test": "FRET transport between LUVs, C2Lact-CFP biosensor and ATTO488-DOPE",
  "assay_type": "biochemical",
  "details": "100 nM Osh6; 5 mol% POPS donor LUVs to POPC acceptor LUVs",
  "data": [
    {"smiles": "CCCCCCCC/C=C\\CCCCCCCC(=O)O[C@H](COC(=O)CCCCCCCCCCCCCCC)COP(=O)(O)OC[C@H](N)C(=O)O", "note": "[PS, POPS]", "values": [
      {"measurement": "FRET transport between LUVs, C2Lact-CFP biosensor and ATTO488-DOPE", "result": "Osh6 molecules pick up PS molecules from any membrane of high PS content"}
    ]}
  ]
}
